Several values for one entry are separate records, joined by “and”; a condition that tells them apart may be missing. Equal entries are not always repeated. Structures can show the parent of a compound that is named as a salt.
What was measured:
Type in all cases: physicochemical
[1] = UV absorption and fluorescence emission spectra in different solvents; settings: for Φ fluorescence quantum yield (single peak) / Φ1 fluorescence quantum yield / Φ2 fluorescence quantum yield: reference Rhodamine B in ethanol; for λabs1 maximum absorption wavelength / λabs2 maximum absorption wavelength / λem1 maximum emission wavelength / λem2 maximum emission wavelength: 1 μM
Protocol: Firstly, stock solutions of 4 and 7 in DMSO were prepared respectively. Then sample solutions of 1 μM were prepared by diluting the mother liquors with corresponding chromatography grade solvent. UV absorption and fluorescence emission spectra of the sample solutions in different solvents were measured at room temperature, the results were shown in FIGS. 1A and 1B, respectively.

[2] = Viscosity experiments: absorption and emission spectra in glycerol-ethanol mixtures; settings: glycerol-ethanol mixtures
Protocol: (§1) Firstly, DMSO solutions of 4 and 7 having a concentration of 1.0×10^−3 M were prepared, respectively. The stock solution of […] was added into 10 mL glycerol-ethanol mixture, and ultrasonicated to remove bubbles. The solution stayed for 1 hour, and then absorption and emission spectra therefore were measured by using UV-visible spectrophotometer and fluorescence spectrophotometer, and fluorescence lifetime of solution with different viscosity was detected as well. UV-visible spectrophotometer, model: Hp8453; fluorescence spectrophotometer model: FP-6500; Fluorescence lifetime equipment: Horiba Jobin Yvon Fluoromax-4-p.
(§2) Glycerol-ethanol mixture was a mixture of glycerol and ethanol, Vglycerol: Vethanol were 1:9, 2:8, 3:7, 4:6, 5:5, 6:4, 7:3, 8:2 and 9:1.

[3] = Fluorescence lifetime in solutions with different viscosity
Protocol: as §1, §2

CCN1/C(=C/C=C/C=C/C2=[N+](CC)c3ccccc3C2(C)C)C(C)(C)c2ccccc21 [ethyl-Cy5, reference compound]
Δλ Stokes Shift (single peak) ([1]; DMSO): 13 nm
ε molar extinction coefficient (single peak) ([1]; DMSO): 272000 L/cm/mol
λabs maximum absorption wavelength (single peak) ([1]; DMSO): 655 nm
λem maximum emission wavelength (single peak) ([1]; DMSO): 668 nm
Φ fluorescence quantum yield (single peak) ([1]; DMSO): 0.33
Δλ Stokes Shift (single peak) ([1]; THF): 9 nm
ε molar extinction coefficient (single peak) ([1]; THF): 227000 L/cm/mol
λabs maximum absorption wavelength (single peak) ([1]; THF): 653 nm
λem maximum emission wavelength (single peak) ([1]; THF): 662 nm
Φ fluorescence quantum yield (single peak) ([1]; THF): 0.37
Δλ Stokes Shift (single peak) ([1]; dichloromethane): 6 nm
ε molar extinction coefficient (single peak) ([1]; dichloromethane): 306000 L/cm/mol
λabs maximum absorption wavelength (single peak) ([1]; dichloromethane): 661 nm
λem maximum emission wavelength (single peak) ([1]; dichloromethane): 671 nm
Φ fluorescence quantum yield (single peak) ([1]; dichloromethane): 0.29
Δλ Stokes Shift (single peak) ([1]; ethanol): 11 nm
ε molar extinction coefficient (single peak) ([1]; ethanol): 302000 L/cm/mol
λabs maximum absorption wavelength (single peak) ([1]; ethanol): 652 nm
λem maximum emission wavelength (single peak) ([1]; ethanol): 663 nm
Φ fluorescence quantum yield (single peak) ([1]; ethanol): 0.27
Δλ Stokes Shift (single peak) ([1]; methanol): 10 nm
ε molar extinction coefficient (single peak) ([1]; methanol): 259000 L/cm/mol
λabs maximum absorption wavelength (single peak) ([1]; methanol): 649 nm
λem maximum emission wavelength (single peak) ([1]; methanol): 659 nm
Φ fluorescence quantum yield (single peak) ([1]; methanol): 0.22
Δλ Stokes Shift (single peak) ([1]; water): 8 nm
ε molar extinction coefficient (single peak) ([1]; water): 227000 L/cm/mol
λabs maximum absorption wavelength (single peak) ([1]; water): 648 nm
λem maximum emission wavelength (single peak) ([1]; water): 656 nm
Φ fluorescence quantum yield (single peak) ([1]; water): 0.13

CCN1/C(=C/C=C(C=O)/C=C/C2=[N+](CC)c3ccccc3C2(C)C)C(C)(C)c2ccccc21 [compound 4, 1,5-di(1-N-ethyl-3,3-dimethyl-2,3-H-lindoline)-3-formyl-1,3,5-pentatriene chloride quaternary ammonium salt cyanine dye]
Δλ1 Stokes Shift (λem1 − λabs1) ([1]; DMSO): 51 nm
Δλ2 Stokes Shift (λem2 − λabs2) ([1]; DMSO): 17 nm
Δλ3 Stokes Shift (λem2 − λabs1) ([1]; DMSO): 230 nm
ε1 molar extinction coefficient ([1]; DMSO): 15000 L/cm/mol
ε2 molar extinction coefficient ([1]; DMSO): 108500 L/cm/mol
λabs1 maximum absorption wavelength ([1]; DMSO): 400 nm
λabs2 maximum absorption wavelength ([1]; DMSO): 613 nm
λem1 maximum emission wavelength ([1]; DMSO): 451 nm
λem2 maximum emission wavelength ([1]; DMSO): 630 nm
Φ1 fluorescence quantum yield ([1]; DMSO): 0.0158
Φ2 fluorescence quantum yield ([1]; DMSO): 0.0224
Δλ1 Stokes Shift (λem1 − λabs1) ([1]; acetonitrile): 54 nm
Δλ2 Stokes Shift (λem2 − λabs2) ([1]; acetonitrile): 19 nm
Δλ3 Stokes Shift (λem2 − λabs1) ([1]; acetonitrile): 229 nm
ε1 molar extinction coefficient ([1]; acetonitrile): 11200 L/cm/mol
ε2 molar extinction coefficient ([1]; acetonitrile): 93500 L/cm/mol
λabs1 maximum absorption wavelength ([1]; acetonitrile): 397 nm
λabs2 maximum absorption wavelength ([1]; acetonitrile): 607 nm
λem1 maximum emission wavelength ([1]; acetonitrile): 451 nm
λem2 maximum emission wavelength ([1]; acetonitrile): 626 nm
Φ1 fluorescence quantum yield ([1]; acetonitrile): 0.0062
Φ2 fluorescence quantum yield ([1]; acetonitrile): 0.0071
Δλ1 Stokes Shift (λem1 − λabs1) ([1]; dichloromethane): 55 nm
Δλ2 Stokes Shift (λem2 − λabs2) ([1]; dichloromethane): 29 nm
Δλ3 Stokes Shift (λem2 − λabs1) ([1]; dichloromethane): 255 nm
ε1 molar extinction coefficient ([1]; dichloromethane): 16000 L/cm/mol
ε2 molar extinction coefficient ([1]; dichloromethane): 89700 L/cm/mol
λabs1 maximum absorption wavelength ([1]; dichloromethane): 399 nm
λabs2 maximum absorption wavelength ([1]; dichloromethane): 625 nm
λem1 maximum emission wavelength ([1]; dichloromethane): 454 nm
λem2 maximum emission wavelength ([1]; dichloromethane): 654 nm
Φ1 fluorescence quantum yield ([1]; dichloromethane): 0.0060
Φ2 fluorescence quantum yield ([1]; dichloromethane): 0.0231
Δλ1 Stokes Shift (λem1 − λabs1) ([1]; ethanol): 52 nm
Δλ2 Stokes Shift (λem2 − λabs2) ([1]; ethanol): 40 nm
Δλ3 Stokes Shift (λem2 − λabs1), pseudo-Stokes Shift ([1]; ethanol): 254 nm
ε1 molar extinction coefficient ([1]; ethanol): 13800 L/cm/mol
ε2 molar extinction coefficient ([1]; ethanol): 97500 L/cm/mol
λabs1 maximum absorption wavelength ([1]; ethanol): 399 nm
λabs2 maximum absorption wavelength ([1]; ethanol): 613 nm
λem1 maximum emission wavelength ([1]; ethanol): 451 nm
λem2 maximum emission wavelength ([1]; ethanol): 653 nm
Φ1 fluorescence quantum yield ([1]; ethanol): 0.0050
Φ2 fluorescence quantum yield ([1]; ethanol): 0.0108
sensitivity to solvent polarity ([1]; low-viscosity solvents of different polarity): insensitive to solvent polarity
Δλ1 Stokes Shift (λem1 − λabs1) ([1]; methanol): 51 nm
Δλ2 Stokes Shift (λem2 − λabs2) ([1]; methanol): 42 nm
Δλ3 Stokes Shift (λem2 − λabs1) ([1]; methanol): 250 nm
ε1 molar extinction coefficient ([1]; methanol): 14500 L/cm/mol
ε2 molar extinction coefficient ([1]; methanol): 99300 L/cm/mol
λabs1 maximum absorption wavelength ([1]; methanol): 400 nm
λabs2 maximum absorption wavelength ([1]; methanol): 608 nm
λem1 maximum emission wavelength ([1]; methanol): 451 nm
λem2 maximum emission wavelength ([1]; methanol): 650 nm
Φ1 fluorescence quantum yield ([1]; methanol): 0.0050
Φ2 fluorescence quantum yield ([1]; methanol): 0.0079
absorption peak, longer wavelength ([1]; solvent not stated): 610 nm
absorption peak, shorter wavelength ([1]; solvent not stated): 400 nm
emission peak, longer wavelength ([1]; solvent not stated): 650 nm
emission peak, shorter wavelength ([1]; solvent not stated): 456 nm and 460 nm
Δλ1 Stokes Shift (λem1 − λabs1) ([1]; water): 47 nm
Δλ2 Stokes Shift (λem2 − λabs2) ([1]; water): 43 nm
Δλ3 Stokes Shift (λem2 − λabs1) ([1]; water): 230 nm
ε1 molar extinction coefficient ([1]; water): 16800 L/cm/mol
ε2 molar extinction coefficient ([1]; water): 62100 L/cm/mol
λabs1 maximum absorption wavelength ([1]; water): 413 nm
λabs2 maximum absorption wavelength ([1]; water): 600 nm
λem1 maximum emission wavelength ([1]; water): 460 nm
λem2 maximum emission wavelength ([1]; water): 643 nm
Φ1 fluorescence quantum yield ([1]; water): 0.0023
Φ2 fluorescence quantum yield ([1]; water): 0.0032
sensitivity of fluorescence intensity to solvent viscosity [2]: quite sensitive to solvent viscosity
fluorescence lifetime ([3]; 99% glycerol solution): 1450 ps
fluorescence lifetime ([3]; pure ethanol): lower than 50 ps
